Patent US11746100B2 (GLOBAL BLOOD THERAPEUTICS, INC., priority 2020, dated 2023)

biological target: T1, human ferroportin (Homo sapiens, UniProt Q9NP59); experiment: Biological in-vitro ferroportin internalization assay (luciferase reporter); type: cell-based; details: average pEC50; stably-transfected CHO cell line expressing human ferroportin tagged to a luciferase reporter; 6 h incubation with test compound
T1 construct: luciferase reporter (read with the Nano-Glo Luciferase Assay System); expressed in transfected cells; host or cells: CHO cells, stably transfected, expression induced with doxycycline
T1 sequence (Q9NP59 1-571): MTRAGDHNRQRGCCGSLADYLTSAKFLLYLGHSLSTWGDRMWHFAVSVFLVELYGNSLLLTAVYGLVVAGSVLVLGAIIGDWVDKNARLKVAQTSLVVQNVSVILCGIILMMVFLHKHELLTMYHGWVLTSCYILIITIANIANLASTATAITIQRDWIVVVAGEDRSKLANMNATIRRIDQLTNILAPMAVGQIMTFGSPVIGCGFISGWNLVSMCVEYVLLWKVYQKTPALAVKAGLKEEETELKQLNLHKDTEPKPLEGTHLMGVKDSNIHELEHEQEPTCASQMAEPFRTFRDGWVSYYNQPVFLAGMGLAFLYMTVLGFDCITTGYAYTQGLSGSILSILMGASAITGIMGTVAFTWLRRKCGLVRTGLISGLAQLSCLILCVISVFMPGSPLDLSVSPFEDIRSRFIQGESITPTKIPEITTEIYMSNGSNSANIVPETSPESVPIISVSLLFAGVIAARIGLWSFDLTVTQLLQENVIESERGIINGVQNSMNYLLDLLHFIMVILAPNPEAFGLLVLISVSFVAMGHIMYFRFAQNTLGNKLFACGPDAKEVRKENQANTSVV
Protocol: The protocol for this assay is generally as described in WO2018/128828, incorporated herein by reference in its entirety. Functional internalization of ferroportin protein was measured using a stably-transfected CHO cell line expressing the human ferroportin tagged to a luciferase reporter. Cells were plated for 24 h in the presence of ferric ammonium citrate (FAC). Ferroportin protein expression was induced with doxycycline for 24 h. The next day, the compounds were added. Test compounds were dissolved in DMSO. Cells were incubated with the test compounds for 6 h, and subsequently luciferase activity was measured using the Nano-Glo Luciferase Assay System and Glomax (Promega, Madison, Wis.). The average pEC50 was determined for the test compounds.

Row | Structure (SMILES) | pEC50
1 | CN(Cc1ncnn1-c1cccc(F)c1)c1nc(-c2cc(OCCO)ccn2)nc2c1CCC2 [Compound 315, 2-({2-[4-({[1-(3-fluorophenyl)-1H-1,2,4-triazol-5-yl]methyl}(methyl)amino)-5H,6H,7H-cyclopenta[d]pyrimidin-2-yl]pyridin-4-yl}oxy)ethan-1-ol] | 6.8
2 | CN(CC(=O)NC1CCCC1)c1nc(-c2cn(C)cn2)nc2c1CCC2 [Compound 150, N-cyclopentyl-2-{methyl[2-(1-methyl-1H-imidazol-4-yl)-5H,6H,7H-cyclopenta[d]pyrimidin-4-yl]amino}acetamide] | 7.3
3 | CN(CC(=O)Nc1cccc(F)c1)c1nc(-c2cc(OCC(C)(C)O)ccn2)nc2c1CCC2 [Compound 280, N-(3-fluorophenyl)-2-({2-[4-(2-hydroxy-2-methylpropoxy)pyridin-2-yl]-5H,6H,7H-cyclopenta[d]pyrimidin-4-yl}(methyl)amino)acetamide] | 8.3
4 | COC[C@@H](O)COc1ccnc(-c2nc3c(c(N(C)CC(=O)NC(C)C)n2)CCC3)c1 [Compound 448, 2-[(2-{4-[(2R)-2-hydroxy-3-methoxypropoxy]pyridin-2-yl}-5H,6H,7H-cyclopenta[d]pyrimidin-4-yl)(methyl)amino]-N-(propan-2-yl)acetamide] | 7.4
5 | CC(=O)NCCOc1ccnc(-c2nc3c(c(N(C)CC(=O)NC(C)(C)C)n2)CCC3)c1 [Compound 369, N-tert-butyl-2-({2-[4-(2-acetamidoethoxy)pyridin-2-yl]-5H,6H,7H-cyclopenta[d]pyrimidin-4-yl}(methyl)amino)acetamide] | 7.7
6 | CN(CC(=O)N1CCCC1)c1nc(-c2cc(OCCO)ccn2)nc2c1CCC2 [Compound 354, 2-({2-[4-(2-hydroxyethoxy)pyridin-2-yl]-5H,6H,7H-cyclopenta[d]pyrimidin-4-yl}(methyl)amino)-1-(pyrrolidin-1-yl)ethan-1-one] | 7.7
7 | Cc1ccc(-c2nc3c(c(N(C)CC(=O)NC(C)(C)C)n2)CCC3)nc1 [Compound 104, N-tert-butyl-2-{methyl[2-(5-methylpyridin-2-yl)-5H,6H,7H-cyclopenta[d]pyrimidin-4-yl]amino}acetamide] | 7.2
8 | CN1CCC(NC(=O)CN(C)c2nc(-c3ccccn3)nc3c2CCC3)C1=O (stereo not shown) [Compound 31, N-(1-methyl-2-oxopyrrolidin-3-yl)-2-{methyl[2-(pyridin-2-yl)-5H,6H,7H-cyclopenta[d]pyrimidin-4-yl]amino}acetamide] | 6.2
9 | CCN(Cc1ncccn1)c1nc(-c2ccccn2)nc2c1CCC2 [Compound 80, N-ethyl-2-(pyridin-2-yl)-N-[(pyrimidin-2-yl)methyl]-5H,6H,7H-cyclopenta[d]pyrimidin-4-amine] | 6.8
10 | COc1ccc(NC(=O)CN(C)c2nc(-c3cc4cccnc4cn3)nc3c2CCC3)cn1 [Compound 244, N-(6-methoxypyridin-3-yl)-2-{methyl[2-(1,7-naphthyridin-6-yl)-5H,6H,7H-cyclopenta[d]pyrimidin-4-yl]amino}acetamide] | 6.4
11 | C[C@H](C(=O)NC1(C)CC1)N(C)c1nc(-c2ccccn2)nc2c1CCC2 [Compound 204, (2R)-2-{methyl[2-(pyridin-2-yl)-5H,6H,7H-cyclopenta[d]pyrimidin-4-yl]amino}-N-(1-methylcyclopropyl)propanamide] | 6.9
12 | COc1ccc(NC(=O)CN(C)c2nc(-c3cc4ccccc4cn3)nc3c2CCC3)cn1 [Compound 227, 2-{[2-(isoquinolin-3-yl)-5H,6H,7H-cyclopenta[d]pyrimidin-4-yl](methyl)amino}-N-(6-methoxypyridin-3-yl)acetamide] | 7.2
13 | COc1ccnc(-c2nc3c(c(N(C)CC(=O)Nc4ccn(C)c(=O)c4)n2)CCC3)c1 [Compound 287, 2-{[2-(4-methoxypyridin-2-yl)-5H,6H,7H-cyclopenta[d]pyrimidin-4-yl](methyl)amino}-N-(1-methyl-2-oxo-1,2-dihydropyridin-4-yl)acetamide] | 7.2
14 | CN(CC(=O)NC(C)(C)C)c1nc(-c2cc(OCC3(O)CCOCC3)ccn2)nc2c1CCC2 [Compound 405, N-tert-butyl-2-[(2-{4-[(4-hydroxyoxan-4-yl)methoxy]pyridin-2-yl}-5H,6H,7H-cyclopenta[d]pyrimidin-4-yl)(methyl)amino]acetamide] | 8.3
15 | C[C@@H](C(=O)NC(C)(C)C)N(C)c1nc(-c2ccccn2)nc2c1CCC2 [Compound 52, (2S)—N-tert-butyl-2-{methyl[2-(pyridin-2-yl)-5H,6H,7H-cyclopenta[d]pyrimidin-4-yl]amino}propanamide] | 6.8
16 | CN(CC(=O)NC(C)(C)C)c1nc(-c2cc(C#N)ccn2)nc2c1CCC2 [Compound 158, N-tert-butyl-2-{[2-(4-cyanopyridin-2-yl)-5H,6H,7H-cyclopenta[d]pyrimidin-4-yl](methyl)amino}acetamide] | 6.2
17 | C[C@H](CN(C)C)Oc1ccnc(-c2nc3c(c(N(C)CC(=O)NC(C)(C)C)n2)CCC3)c1 [Compound 406, N-tert-butyl-2-{[2-(4-{[(2R)-1-(dimethylamino)propan-2-yl]oxy}pyridin-2-yl)-5H,6H,7H-cyclopenta[d]pyrimidin-4-yl](methyl)amino}acetamide] | 7.7
18 | C[C@H](C(=O)NC(C)(C)C)N(C)c1nc(-c2cc(OCCN(C)C)ccn2)nc2c1CCC2 [Compound 408, (2R)—N-tert-butyl-2-[(2-{4-[2-(dimethylamino)ethoxy]pyridin-2-yl}-5H,6H,7H-cyclopenta[d]pyrimidin-4-yl)(methyl)amino]propanamide] | 8.5
19 | CO[C@H]1CCN(CCOc2ccnc(-c3nc4c(c(N(C)CC(=O)NC(C)(C)C)n3)CCC4)c2)C1 [Compound 464, N-tert-butyl-2-{[2-(4-{2-[(3S)-3-methoxypyrrolidin-1-yl]ethoxy}pyridin-2-yl)-5H,6H,7H-cyclopenta[d]pyrimidin-4-yl](methyl)amino}acetamide] | 8.0
20 | COc1cc(-c2nc3c(c(N(C)CC(=O)NC(C)(C)C)n2)CCC3)ncc1C [Compound 192, N-tert-butyl-2-{[2-(4-methoxy-5-methylpyridin-2-yl)-5H,6H,7H-cyclopenta[d]pyrimidin-4-yl](methyl)amino}acetamide] | 6.5
21 | COc1ccc(NC(=O)[C@@H](C)N(C)c2nc(-c3cc(OC4COC4)ccn3)nc3c2CCC3)cn1 [Compound 312, (2R)-N-(6-methoxypyridin-3-yl)-2-[methyl({2-[4-(oxetan-3-yloxy)pyridin-2-yl]-5H,6H,7H-cyclopenta[d]pyrimidin-4-yl})amino]propanamide] | 7.7
22 | CN1CCCN(c2nc(-c3ccccn3)nc3c2CCC3)CC1 [Compound 85, 1-methyl-4-[2-(pyridin-2-yl)-5H,6H,7H-cyclopenta[d]pyrimidin-4-yl]-1,4-diazepane] | 5.5
23 | CN(CC(=O)NC12CC(C1)C2)c1nc(-c2cc(OC3COC3)ccn2)nc2c1CCC2 [Compound 340, N-{bicyclo[1.1.1]pentan-1-yl}-2-[methyl({2-[4-(oxetan-3-yloxy)pyridin-2-yl]-5H,6H,7H-cyclopenta[d]pyrimidin-4-yl})amino]acetamide] | 7.7
24 | CN(CC(=O)NC(C)(C)C)c1nc(-c2cc3cn[nH]c3cn2)nc2c1CCC2 [Compound 110, N-tert-butyl-2-[methyl(2-{1H-pyrazolo[3,4-c]pyridin-5-yl}-5H,6H,7H-cyclopenta[d]pyrimidin-4-yl)amino]acetamide] | 7.9
25 | CN(CC(=O)N1CCCCC1)c1nc(-c2cc3ccccc3cn2)nc2c1CCC2 [Compound 255, 2-{[2-(isoquinolin-3-yl)-5H,6H,7H-cyclopenta[d]pyrimidin-4-yl](methyl)amino}-1-(piperidin-1-yl)ethan-1-one] | 6.9
26 | C[C@H](C(=O)NC(C)(C)C)N(C)c1nc(-c2ccccn2)nc2c1CCC2 [Compound 51, (2R)—N-tert-butyl-2-{methyl[2-(pyridin-2-yl)-5H,6H,7H-cyclopenta[d]pyrimidin-4-yl]amino}propanamide] | 7.5
27 | CCC(C)(O)COc1ccnc(-c2nc3c(c(N(C)CC(=O)NC(C)(C)C)n2)CCC3)c1 (stereo in doubt) [Compound 446, N-tert-butyl-2-[(2-{4-[(2R)-2-hydroxy-2-methylbutoxy]pyridin-2-yl}-5H,6H,7H-cyclopenta[d]pyrimidin-4-yl)(methyl)amino]acetamide] | 8.2
28 | Cc1ccnc(-c2cc(N(C)CC(=O)NC(C)(C)C)c3c(n2)CCC3)c1 [Compound 68, N-tert-butyl-2-{methyl[2-(4-methylpyridin-2-yl)-5H,6H,7H-cyclopenta[b]pyridin-4-yl]amino}acetamide] | 7.2
